IC50 data for four molecules are collected here from patent US20160009751A1, “C-19 HYDROXY PREGNENES” (LEO Pharma A/S, priority 2014, published 2016).

Test [1] addresses T1, recombinant glucocorticoid receptor (GR) (Homo sapiens, UniProt P04150).
T1 sequence (P04150 1-777): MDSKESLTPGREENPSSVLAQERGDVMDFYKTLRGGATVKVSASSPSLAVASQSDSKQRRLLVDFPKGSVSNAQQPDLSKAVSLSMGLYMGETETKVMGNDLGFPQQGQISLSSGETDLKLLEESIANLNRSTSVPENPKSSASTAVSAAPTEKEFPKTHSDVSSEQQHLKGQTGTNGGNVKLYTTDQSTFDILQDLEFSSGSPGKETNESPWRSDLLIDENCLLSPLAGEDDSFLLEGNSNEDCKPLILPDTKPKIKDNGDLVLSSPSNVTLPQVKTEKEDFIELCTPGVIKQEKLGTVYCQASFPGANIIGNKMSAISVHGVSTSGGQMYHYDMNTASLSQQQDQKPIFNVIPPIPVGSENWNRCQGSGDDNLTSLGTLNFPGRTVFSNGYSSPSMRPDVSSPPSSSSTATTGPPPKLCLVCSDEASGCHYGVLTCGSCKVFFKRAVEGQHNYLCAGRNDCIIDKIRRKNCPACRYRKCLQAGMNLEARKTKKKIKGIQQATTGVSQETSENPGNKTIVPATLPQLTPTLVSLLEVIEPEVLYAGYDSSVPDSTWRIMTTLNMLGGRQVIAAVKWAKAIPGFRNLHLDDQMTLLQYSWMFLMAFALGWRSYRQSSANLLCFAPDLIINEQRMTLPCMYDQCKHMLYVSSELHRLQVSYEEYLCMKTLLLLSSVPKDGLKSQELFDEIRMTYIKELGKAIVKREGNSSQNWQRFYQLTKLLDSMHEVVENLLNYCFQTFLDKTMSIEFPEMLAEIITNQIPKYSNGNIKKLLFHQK
The test is described as follows: Glucocorticoid receptor (GR) competitive binding assay (PolarScreen, fluorescence polarization). The note with it: competition with Fluormone GS1, 2 hours at room temperature; relative IC50; read-out: GR binding; Rel IC50. How it is done:
Glucocorticoid receptor binding was determined by competitive receptor binding assay using the PolarScreen™ Glucocorticoid Receptor Competitor Assay Kit, Green (Life Technologies, catalogue number A15897) in a 384-well format according to the manufacturer's instructions. Briefly, serial dilutions of test and reference compounds were prepared in 384-well plates. Subsequently, the steroidal competitor Fluormone™ GS1 and recombinant glucocorticoid receptor (GR) were added to all wells and the plate was incubated for 2 hours at room temperature and protected from light. Finally, polarization values in each well were determined by reading the plate in an EnVision (PerkinElmer) device.
On the technique in general: Polarisation of emitted light reports the rotation of a fluorescent probe.

The subject of test [2] is Interleukin-12B (IL-12B) release from primary human monocytes (PBMC). In words: Interleukin-12B (IL-12B) release from LPS-stimulated primary human monocytes (PBMC). To be noted: 100 ng/ml LPS for 18 h, ELISA, relative IC50, read-out: Interleukin-12B (IL-12B), Rel IC50. It is filed as cell-based. The text has this: The assay was adopted from a previously reported method (Schäcke et al, Br 3 Pharmacol (2009); 158(4): 1088-103) and is based on PBMC isolated from human blood. Stimulation of these cells with lipopolysaccharide (LPS) induces—among many other processes—the synthesis and secretion of the cytokine IL-12B. Both steroidal (glucocorticoids) and non-steroidal glucocorticoid receptor agonists act anti-inflammatory—e.g. by preventing DNA-binding of inflammatory transcription factors like AP-1 or NFkB—resulting in decreased synthesis/secretion of IL12B.
For compound testing, frozen stocks of PBMC were thawed, seeded in 96-well plates (1.2E5 cells/well) and then incubated in RPMI-1640 culture medium with 100 ng/ml LPS for 18 h with or without test compounds (pre-incubation with reference/test compounds for 1 h before addition of LPS). Then, IL-12B concentration in the cell culture supernatants was detected by hIL-12B-specific ELISA (Quantikine® human IL-12 p40 Immunoassay, R&D Systems Cat #SP400).
On the technique in general: An ELISA detects its analyte on a solid surface through an enzyme-linked reagent.

Test [3] addresses T2, mineralocorticoid receptor (MR) (Homo sapiens, UniProt P08235).
T2 construct: UAS-driven beta-lactamase reporter
T2 sequence (P08235 726-984 limits assumed): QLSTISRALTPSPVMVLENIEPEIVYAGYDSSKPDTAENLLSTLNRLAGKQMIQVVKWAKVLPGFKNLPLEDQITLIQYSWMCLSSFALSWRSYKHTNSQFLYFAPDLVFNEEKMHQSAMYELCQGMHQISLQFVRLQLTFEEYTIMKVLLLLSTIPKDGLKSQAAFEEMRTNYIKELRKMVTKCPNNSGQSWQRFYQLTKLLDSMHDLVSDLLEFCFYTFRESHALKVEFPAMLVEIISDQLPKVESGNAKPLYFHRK
In words: Mineralocorticoid receptor (MR) antagonism assay (GeneBLAzer MR DA, beta-lactamase reporter). It counts as cell-based. The note with it: 0.14 nM-1 uM test compound, 10 nM aldosterone; relative IC50; read-out: Mineral corticoid receptor (MR) antagonism; Rel IC50. On the procedure:
Agonistic and antagonistic interaction with the mineralocorticoid receptor was determined using the GeneBLAzer® MR DA Assay Kit (Life Technologies, catalogue number K1409) in a 96-well format according to the manufacturer's instructions. For determination of MR agonistic effect, cells were incubated with 0.14 nM-1 uM of test compound; the MR agonist aldosterone was included as a positive control in the same concentration range. After 16 h incubation, assay substrate (LiveBLAzer™-FRET B/G) was added to all wells and cells were incubated for 2 h followed by fluorometric detection (409/447 nm excitation and emission wavelength, respectively) of substrate conversion by beta-lactamase.
After 0.5 h, 10 nM of the MR agonist aldosterone was added to all wells and cells were incubated for another 15.5 h. After that, assay substrate (LiveBLAzer™-FRET B/G) was added to all wells and cells were incubated for 2 h followed by fluorometric detection (409/447 nm excitation and emission wavelength, respectively) substrate conversion by beta lactamase.

Some results are limits rather than exact numbers.

Take `CCCCC(=O)O[C@]1(C(=O)CO)[C@@H](C)C[C@H]2[C@@H]3CCC4=CC(=O)C=C[C@]4(C)[C@@]3(F)[C@@H](O)C[C@@]21C` [Bethamethasone valerate]: the IC50 in test [1] was 7 nM; in test [2], less than 1 nM; in test [3] it was 137 nM.
Consider `CCC(=O)O[C@]1(C(=O)CCl)[C@@H](C)C[C@H]2[C@@H]3CCC4=CC(=O)C=C[C@]4(C)[C@@]3(F)[C@@H](O)C[C@@]21C` [Clobetasol propionate], for which the figures for the IC50 in test [1], in test [2] and in test [3] were 6 nM, less than 1 nM and 171 nM, respectively.
In the same order, the values of `CCC(=O)O[C@]1(C(=O)CCl)CC[C@H]2[C@@H]3CCC4=CC(=O)CC[C@]4(CO)[C@H]3[C@@H](O)C[C@@]21C` [Compound 1, (8S,9S,10S,11S,13S,14S,17R)-17-(2-chloroacetyl)-11-hydroxy-10-(hydroxymethyl-13-methyl-3-oxo-2,3,6,7,8,9,10,11,12,13,14,15,16,17-tetradecahydro-1H-cyclopenta[a]phenanthren-17-yl propionate] are 25 nM, 36 nM and more than 1000 nM.
In the case of `CCC(=O)O[C@]1(C(=O)CCl)CC[C@H]2[C@@H]3C[C@@H](F)C4=CC(=O)CC[C@]4(CO)[C@H]3[C@@H](O)C[C@@]21C` [Compound 2, (6R,8S,9S,10S,11S,13S,14S,17R)-17-(2-chloroacetyl)-6-fluoro-11-hydroxy-10-(hydroxymethyl)-13-methyl-3-oxo-2,3,6,7,8,9,10,11,12,13,14,15,16,17-tetradecahydro-1H-cyclopenta[a]phenanthren-17-yl propionate], the IC50 stood at 40 nM in test [1] and 31 nM in test [2].
